{"source": "patent US11116708B2", "about": "“Personal care compositions including naringin:zinc complexes and methods for the same” (Colgate-Palmolive Company, priority 2017, dated 2021)", "key": {"[1]": {"tested_on": "human epidermal keratinocyte cells", "test": "Scratch assay (cell migration / gap closure) using human epidermal keratinocyte cells", "assay_type": "cell-based", "conditions": "0.001% sample", "description": "The cell regeneration function or properties of the naringin:zinc complex were evaluated via a scratch assay using human epidermal keratinocyte cells obtained from Thermal Fisher Scientific of Gaithersburg, Md. Particularly, monolayers of keratinocyte cells were gown to full confluency in separate wells, and each well was scratched with a 1000 μl tip to create a cell-free gap. Each of the wells with the cell-free gap was then washed with 1 mL of PBS twice to remove any dead floating cells. […] Distance measurements of the gap were taken every 24 hours until the gaps fully closed.\nIt should be appreciated that a relatively higher value of the percentage of gap closure indicates a relatively greater repair or regeneration function."}, "[2]": {"tested_on": "IL-1a", "test": "IL-1a assay using HaCaT cells stressed with 0.01% SDS (ELISA of cell supernatants)", "assay_type": "cell-based", "conditions": "0.001% sample, 24 h pretreatment, 0.01% SDS stress 15 min, sample added again, normalized by cell viability", "quoted_text": "The anti-inflammatory properties of the naringin:zinc complex was evaluated by conducting an IL-la assay using HaCaT cells. To evaluate the anti-inflammatory properties, HaCaT cells were grown into 80% confluency and pretreated for 24 hours with 1 mL of each of the following samples: (1) a culture media (control); (2) 0.001% naringin:zinc complex; and (3) 0.001% naringin alone.\nAfter pretreating the HaCaT cells, the cells were stressed with 0.01% SDS for 15 minutes before adding another 1 mL of each of the samples (1)-(3). Each of the HaCaT cells were used to prepare cell supernatants, which were used for IL-la assays with IL-la ELISA kits."}}}
{"smiles": "C[C@@H]1O[C@@H](O[C@H]2[C@H](Oc3cc(O)c4c(c3)O[C@H](c3ccc(O)cc3)CC4=O)O[C@H](CO)[C@@H](O)[C@@H]2O)[C@H](O)[C@H](O)[C@H]1O", "note": "[Naringin, naringin]", "values": [{"measurement": "Cell Migration of Keratinocytes (% Active); percentage of gap closure versus the starting gap distance", "setting": "[1]", "value": 58, "unit": "%"}, {"measurement": "IL-1a level", "setting": "[2]", "value": 6.6, "unit": "pg/mL"}]}
